Measured values as given in the NIST ThermoML archive (doi:10.1021/je900550v).

Details: 101.33 kPa, Liquid; for speed of sound: Sing-around technique in a fixed-path interferometer; for mass density: Vibrating tube method

CC(=O)[O-].C[NH2+]CCO [N-methyl-2-hydroxyethylammonium acetate]
Details	mass density [kg/m3]	speed of sound [m/s]	viscosity [mPa·s]
293.15 K	1103.76	1807.5	–
293.4 K	1103.61	1806.9	–
293.65 K	1103.46	1806.3	–
293.9 K	1103.32	1805.6	–
294.15 K	1103.17	1805	–
294.4 K	1103.02	1804.3	–
294.65 K	1102.88	1803.7	–
294.9 K	1102.73	1803.1	–
295.15 K	1102.59	1802.4	–
295.4 K	1102.44	1801.8	–
295.65 K	1102.29	1801.2	–
295.9 K	1102.14	1800.5	–
296.15 K	1102	1799.9	–
296.4 K	1101.85	1799.2	–
296.65 K	1101.7	1798.6	–
296.9 K	1101.56	1798	–
297.15 K	1101.41	1797.3	–
297.4 K	1101.26	1796.7	–
297.65 K	1101.11	1796	–
297.9 K	1100.97	1795.4	–
298.15 K	1100.83	1794.8	106.06
298.4 K	1100.67	1794.1	–
298.65 K	1100.53	1793.5	–
298.9 K	1100.38	1792.9	–
299.15 K	1100.23	1792.2	–
299.4 K	1100.08	1791.6	–
299.65 K	1099.93	1791	–
299.9 K	1099.78	1790.3	–
300.15 K	1099.63	1789.7	–
300.4 K	1099.48	1789	–
300.65 K	1099.34	1788.4	–
300.9 K	1099.19	1787.8	–
301.15 K	1099.04	1787.1	–
301.4 K	1098.89	1786.5	–
301.65 K	1098.74	1785.8	–
301.9 K	1098.59	1785.2	–
302.15 K	1098.44	1784.6	–
302.4 K	1098.29	1783.9	–
302.65 K	1098.14	1783.3	–
302.9 K	1097.99	1782.6	–
303.15 K	1097.84	1782	78.7
303.4 K	1097.69	1781.3	–
303.65 K	1097.54	1780.7	–
303.9 K	1097.4	1780.2	–
304.15 K	1097.25	1779.6	–
304.4 K	1097.1	1779	–
304.65 K	1096.95	1778.3	–
304.91 K	1096.79	1777.7	–
305.15 K	1096.64	1777	–
305.4 K	1096.49	1776.4	–
305.65 K	1096.34	1775.7	–
305.9 K	1096.19	1775.1	–
306.15 K	1096.04	1774.5	–
306.4 K	1095.89	1773.8	–
306.65 K	1095.74	1773.2	–
306.9 K	1095.59	1772.5	–
307.15 K	1095.44	1771.9	–
307.4 K	1095.29	1771.3	–
307.65 K	1095.14	1770.6	–
307.9 K	1094.98	1770	–
308.15 K	–	–	60.03
